Experimental data from US8765773B2, “Substituted hydroxamic acids and uses thereof” (Millennium Pharmaceuticals, Inc., priority 2010, dated 2014).

Biological target: T1, purified human HDAC6 (Homo sapiens, UniProt Q9UBN7)
T1 construct: purchased BPS Bioscience 5006
T1 sequence (Q9UBN7 1-1215): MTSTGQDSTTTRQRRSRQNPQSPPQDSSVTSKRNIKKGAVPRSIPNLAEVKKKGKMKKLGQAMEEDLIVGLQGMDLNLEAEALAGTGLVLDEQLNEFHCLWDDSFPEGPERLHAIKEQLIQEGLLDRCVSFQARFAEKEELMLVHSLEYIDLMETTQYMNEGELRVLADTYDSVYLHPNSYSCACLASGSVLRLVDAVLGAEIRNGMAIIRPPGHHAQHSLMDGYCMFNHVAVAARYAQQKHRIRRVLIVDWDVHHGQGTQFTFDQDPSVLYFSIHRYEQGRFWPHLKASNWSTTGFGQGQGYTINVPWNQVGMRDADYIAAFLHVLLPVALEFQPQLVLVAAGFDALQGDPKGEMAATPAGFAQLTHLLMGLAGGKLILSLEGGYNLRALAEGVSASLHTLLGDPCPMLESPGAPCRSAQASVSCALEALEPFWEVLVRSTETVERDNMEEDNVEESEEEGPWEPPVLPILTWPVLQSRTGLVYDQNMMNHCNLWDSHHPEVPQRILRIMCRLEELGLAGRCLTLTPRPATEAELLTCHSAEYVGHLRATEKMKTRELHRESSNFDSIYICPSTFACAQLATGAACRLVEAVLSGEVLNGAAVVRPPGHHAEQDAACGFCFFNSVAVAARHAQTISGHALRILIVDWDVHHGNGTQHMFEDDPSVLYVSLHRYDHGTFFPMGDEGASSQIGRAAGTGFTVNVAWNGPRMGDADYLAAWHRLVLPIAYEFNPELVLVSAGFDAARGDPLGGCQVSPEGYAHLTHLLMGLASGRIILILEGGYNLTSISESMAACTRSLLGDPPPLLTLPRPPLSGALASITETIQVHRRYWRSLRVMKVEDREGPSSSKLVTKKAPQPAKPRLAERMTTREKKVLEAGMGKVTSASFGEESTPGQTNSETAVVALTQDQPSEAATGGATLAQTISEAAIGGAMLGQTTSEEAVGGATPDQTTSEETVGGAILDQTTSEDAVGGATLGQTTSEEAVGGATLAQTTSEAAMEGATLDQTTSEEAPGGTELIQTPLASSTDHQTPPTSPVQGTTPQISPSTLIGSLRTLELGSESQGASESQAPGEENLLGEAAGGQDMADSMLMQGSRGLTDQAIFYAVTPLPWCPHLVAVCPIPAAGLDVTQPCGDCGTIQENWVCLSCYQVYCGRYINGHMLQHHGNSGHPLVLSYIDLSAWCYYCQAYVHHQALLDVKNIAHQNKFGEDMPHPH
Assay: HDAC6 Enzyme Assay
Type: biochemical
Details: compound concentration 0.37 μM, read-out: Percent Inhibition
Outline: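 Readout is AMC fluorescence (Ex 340 nm, Em 460 nm) after trypsin cleavage of the deacetylated Ac-Arg-Gly-Lys(Ac)-AMC product. Reaction: purified human HDAC6, compound or vehicle, 1 hour, 30° C, quenched by trichostatin A. Single-concentration percent inhibition or IC50 calculated versus DMSO-treated samples.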

| Structure (SMILES) | inhibition at 0.37 µM |
| --- | --- |
| CCC(C)c1nc2cc(C(=O)NO)ccc2c(=O)n1Cc1ccc(C(F)(F)F)cc1 (stereo not shown) [Compound I-100, 2-sec-butyl-N-hydroxy-4-oxo-3-[4-(trifluoromethyl)benzyl]-3,4-dihydroquinazoline-7-carboxamide] | 90.6% |
| O=C(NO)c1ccc2ccn(CCC(c3ccc(Cl)cc3)C3CCNCC3)c(=O)c2c1 (stereo not shown) [Compound I-103, 2-[3-(4-chlorophenyl)-3-piperidin-4-ylpropyl]-N-hydroxy-1-oxo-1,2-dihydroisoquinoline-7-carboxamide] | 100% |
| O=C(NO)c1ccc2c(=O)n(Cc3ccc(C(F)(F)F)cc3)c(C3CCCC3)nc2c1 [Compound I-106, 2-cyclopentyl-N-hydroxy-4-oxo-3-[4-(trifluoromethyl)benzyl]-3,4-dihydroquinazoline-7-carboxamide] | 78.5% |
| O=C(NO)c1ccc2ncn(Cc3cccc(N4CCOCC4)c3)c(=O)c2c1 [Compound I-114, N-hydroxy-3-(3-morpholin-4-ylbenzyl)-4-oxo-3,4-dihydroquinazoline-6-carboxamide] | 93.8% |

Same assay, conditions: compound concentration 0.412 μM, read-out: Percent Inhibition

| Structure (SMILES) | inhibition at 0.412 µM |
| --- | --- |
| CC(C)(C)OC(=O)N(CCCn1ccc2ccc(C(=O)NO)cc2c1=O)c1ccncc1 [Compound I-89, tert-butyl {3-[7-[(hydroxyamino)carbonyl]-1-oxoisoquinolin-2(1H)-yl]propyl}pyridin-4-ylcarbamate] | 95.6% |
| O=C(NO)c1ccc2ccn(CCCOc3ccc(-c4csnn4)cc3)c(=O)c2c1 [Compound I-90, N-hydroxy-1-oxo-2-{3-[4-(1,2,3-thiadiazol-4-yl)phenoxy]propyl}-1,2-dihydroisoquinoline-7-carboxamide] | 97.7% |
| O=C(NO)c1ccc2ccn(CCOc3cc(C(F)(F)F)cc(C(F)(F)F)c3)c(=O)c2c1 [Compound I-91, 2-{2-[3,5-bis(trifluoromethyl)phenoxy]ethyl}-N-hydroxy-1-oxo-1,2-dihydroisoquinoline-7-carboxamide] | 86.9% |
| O=C(NO)c1ccc2c(=O)[nH]c(CNCc3ccc(Cl)cc3)nc2c1 [Compound I-92, 2-{[(4-chlorobenzyl)amino]methyl}-N-hydroxy-4-oxo-3,4-dihydroquinazoline-7-carboxamide] | 90.9% |
| CC(C)(C)OC(=O)N1CCC(C)(C(=O)Nc2cccc(Cn3ccc4ccc(C(=O)NO)cc4c3=O)c2)CC1 [Compound I-93, tert-butyl 4-{[(3-{[7-[(hydroxyamino)carbonyl]-1-oxoisoquinolin-2(1H)-yl]methyl}phenyl)amino]carbonyl}-4-methylpiperidine-1-carboxylate] | 90.1% |
| CCCCC(CC)Cn1ccc2ccc(C(=O)NO)cc2c1=O (stereo not shown) [Compound I-94, 2-(2-ethylhexyl)-N-hydroxy-1-oxo-1,2-dihydroisoquinoline-7-carboxamide] | 93.5% |
| O=C(NO)c1ccc2ccn(CCCc3c[nH]c4ccccc34)c(=O)c2c1 [Compound I-95, N-hydroxy-2-[3-(1H-indol-3-yl)propyl]-1-oxo-1,2-dihydroisoquinoline-7-carboxamide] | 98.1% |
| O=C(NO)c1ccc2ccn(CC(c3ccccc3)C3CCCCC3)c(=O)c2c1 (stereo not shown) [Compound I-96, 2-(2-cyclohexyl-2-phenylethyl)-N-hydroxy-1-oxo-1,2-dihydroisoquinoline-7-carboxamide] | 80.9% |
| COc1ccc(NCCn2ccc3ccc(C(=O)NO)cc3c2=O)cc1 [Compound I-97, N-hydroxy-2-{2-[(4-methoxyphenyl)amino]ethyl}-1-oxo-1,2-dihydroisoquinoline-7-carboxamide] | 79.1% |
| O=C(NO)c1ccc2ccn(Cc3cccc(Oc4ccc(F)cc4)c3)c(=O)c2c1 [Compound I-98, 2-[3-(4-fluorophenoxy)benzyl]-N-hydroxy-1-oxo-1,2-dihydroisoquinoline-7-carboxamide] | 91% |
| O=C(NO)c1ccc2ccn(CCOc3cc(Cl)cc(Cl)c3)c(=O)c2c1 [Compound I-99, 2-[2-(3,5-dichlorophenoxy)ethyl]-N-hydroxy-1-oxo-1,2-dihydroisoquinoline-7-carboxamide] | 93% |
| COc1cc(OC)cc(OCCn2ccc3ccc(C(=O)NO)cc3c2=O)c1 [Compound I-101, 2-[2-(3,5-dimethoxyphenoxy)ethyl]-N-hydroxy-1-oxo-1,2-dihydroisoquinoline-7-carboxamide] | 95.7% |
| O=C(NO)c1ccc2ccn(Cc3c(F)cc(F)cc3F)c(=O)c2c1 [Compound I-102, N-hydroxy-1-oxo-2-(2,4,6-trifluorobenzyl)-1,2-dihydroisoquinoline-7-carboxamide] | 94.3% |
| O=C(NO)c1ccc2ncn(CCc3ccccn3)c(=O)c2c1 [Compound I-104, N-hydroxy-4-oxo-3-(2-pyridin-2-ylethyl)-3,4-dihydroquinazoline-6-carboxamide] | 82.5% |
| O=C(NO)c1ccc2ccn(C3CCCC3)c(=O)c2c1 [Compound I-105, 2-cyclopentyl-N-hydroxy-1-oxo-1,2-dihydroisoquinoline-7-carboxamide] | 86.5% |
| Cc1cccc(OCc2nc3cc(C(=O)NO)ccc3c(=O)[nH]2)c1 [Compound I-107, N-hydroxy-2-[(3-methylphenoxy)methyl]-4-oxo-3,4-dihydroquinazoline-7-carboxamide] | 85.2% |
| O=C(NO)c1ccc2ccn(CCNc3cccc(-n4cccn4)c3)c(=O)c2c1 [Compound I-108, N-hydroxy-1-oxo-2-(2-{[3-(1H-pyrazol-1-yl)phenyl]amino}ethyl)-1,2-dihydroisoquinoline-7-carboxamide] | 91.4% |
| O=C(NO)c1ccc2ccn(Cc3cccc(F)c3)c(=O)c2c1 [Compound I-109, 2-(3-fluorobenzyl)-N-hydroxy-1-oxo-1,2-dihydroisoquinoline-7-carboxamide] | 95.9% |
| O=C(NO)c1ccc2c(=O)[nH]c(COc3cccc(C(F)(F)F)c3)nc2c1 [Compound I-110, N-hydroxy-4-oxo-2-{[3-(trifluoromethyl)phenoxy]methyl}-3,4-dihydroquinazoline-7-carboxamide] | 76% |
| O=C(NO)c1ccc2ncn(Cc3cccc(F)c3)c(=O)c2c1 [Compound I-111, 3-(3-fluorobenzyl)-N-hydroxy-4-oxo-3,4-dihydroquinazoline-6-carboxamide] | 93.5% |
| CC1(C)CCC(C)(C)c2cc(Cn3cnc4ccc(C(=O)NO)cc4c3=O)ccc21 [Compound I-112, N-hydroxy-4-oxo-3-[(5,5,8,8-tetramethyl-5,6,7,8-tetrahydronaphthalen-2-yl)methyl]-3,4-dihydroquinazoline-6-carboxamide] | 95.2% |
| O=C(NO)c1ccc2ccn(CCNc3ccc(Cl)cc3)c(=O)c2c1 [Compound I-113, 2-{2-[(4-chlorophenyl)amino]ethyl}-N-hydroxy-1-oxo-1,2-dihydroisoquinoline-7-carboxamide] | 95.6% |
| O=C(NO)c1ccc2ncn(Cc3ccc(F)cc3)c(=O)c2c1 [Compound I-115, 3-(4-fluorobenzyl)-N-hydroxy-4-oxo-3,4-dihydroquinazoline-6-carboxamide] | 90.2% |
| O=C(NO)c1ccc2ccn(CCCOc3ccc(OCc4ccccc4)cc3)c(=O)c2c1 [Compound I-116, 2-{3-[4-(benzyloxy)phenoxy]propyl}-N-hydroxy-1-oxo-1,2-dihydroisoquinoline-7-carboxamide] | 80.2% |
| O=C(NO)c1ccc2ccn(C3CCCCCC3)c(=O)c2c1 [Compound I-117, 2-cycloheptyl-N-hydroxy-1-oxo-1,2-dihydroisoquinoline-7-carboxamide] | 93.3% |
| O=C(NO)c1ccc2ccn(CCCc3ccncc3)c(=O)c2c1 [Compound I-118, N-hydroxy-1-oxo-2-(3-pyridin-4-ylpropyl)-1,2-dihydroisoquinoline-7-carboxamide] | 93.3% |
| O=C(NO)c1ccc2ccn(Cc3cc(F)cc(F)c3)c(=O)c2c1 [Compound I-119, 2-(3,5-difluorobenzyl)-N-hydroxy-1-oxo-1,2-dihydroisoquinoline-7-carboxamide] | 95.5% |
